According to ChEMBL document CHEMBL4387706, “Discovery of Novel Spiroindoline Derivatives as Selective Tankyrase Inhibitors” (J Med Chem, 2019):
Values after ≈ are worked out from the molar mass of the structure shown. Active and inactive are the calls of the source. The calls are words filed in the database; no cut-off is given here.

Columns and labels:
[1] = target: Tankyrase 1/2 (Homo sapiens) (UniProt Q9H2K2+O95271); assay: Inhibition of TNKS/TNKS2 in human COLO320DM cells assessed as upregulation of AXIN2 expression at 0.1 uM measured after 16 hrs by Western blot analysis relative to G007-LK; type: cell-based
[2] = Protein binding in human serum assessed as unbound fraction at 1 uM measured after 24 hrs by LC-MS/MS analysis; type: ADME, cell-free
[3] = AUC (infinity) in ICR mouse at 50 mg/kg, ip; type: ADME, organism-based; set-up: dose 50 mg/kg, route intraperitoneal, time infinity; settings: in vivo
in vitro [4] = settings: human, liver microsomes
Description: Stability in human liver microsomes assessed as parent compound remaining at 1 uM measured after 30 mins in presence of NADPH by LC-MS/MS analysis

[5] = target: T1, Poly [ADP-ribose] polymerase tankyrase-1 (Homo sapiens, UniProt O95271)
T1 sequence (O95271 whole entry): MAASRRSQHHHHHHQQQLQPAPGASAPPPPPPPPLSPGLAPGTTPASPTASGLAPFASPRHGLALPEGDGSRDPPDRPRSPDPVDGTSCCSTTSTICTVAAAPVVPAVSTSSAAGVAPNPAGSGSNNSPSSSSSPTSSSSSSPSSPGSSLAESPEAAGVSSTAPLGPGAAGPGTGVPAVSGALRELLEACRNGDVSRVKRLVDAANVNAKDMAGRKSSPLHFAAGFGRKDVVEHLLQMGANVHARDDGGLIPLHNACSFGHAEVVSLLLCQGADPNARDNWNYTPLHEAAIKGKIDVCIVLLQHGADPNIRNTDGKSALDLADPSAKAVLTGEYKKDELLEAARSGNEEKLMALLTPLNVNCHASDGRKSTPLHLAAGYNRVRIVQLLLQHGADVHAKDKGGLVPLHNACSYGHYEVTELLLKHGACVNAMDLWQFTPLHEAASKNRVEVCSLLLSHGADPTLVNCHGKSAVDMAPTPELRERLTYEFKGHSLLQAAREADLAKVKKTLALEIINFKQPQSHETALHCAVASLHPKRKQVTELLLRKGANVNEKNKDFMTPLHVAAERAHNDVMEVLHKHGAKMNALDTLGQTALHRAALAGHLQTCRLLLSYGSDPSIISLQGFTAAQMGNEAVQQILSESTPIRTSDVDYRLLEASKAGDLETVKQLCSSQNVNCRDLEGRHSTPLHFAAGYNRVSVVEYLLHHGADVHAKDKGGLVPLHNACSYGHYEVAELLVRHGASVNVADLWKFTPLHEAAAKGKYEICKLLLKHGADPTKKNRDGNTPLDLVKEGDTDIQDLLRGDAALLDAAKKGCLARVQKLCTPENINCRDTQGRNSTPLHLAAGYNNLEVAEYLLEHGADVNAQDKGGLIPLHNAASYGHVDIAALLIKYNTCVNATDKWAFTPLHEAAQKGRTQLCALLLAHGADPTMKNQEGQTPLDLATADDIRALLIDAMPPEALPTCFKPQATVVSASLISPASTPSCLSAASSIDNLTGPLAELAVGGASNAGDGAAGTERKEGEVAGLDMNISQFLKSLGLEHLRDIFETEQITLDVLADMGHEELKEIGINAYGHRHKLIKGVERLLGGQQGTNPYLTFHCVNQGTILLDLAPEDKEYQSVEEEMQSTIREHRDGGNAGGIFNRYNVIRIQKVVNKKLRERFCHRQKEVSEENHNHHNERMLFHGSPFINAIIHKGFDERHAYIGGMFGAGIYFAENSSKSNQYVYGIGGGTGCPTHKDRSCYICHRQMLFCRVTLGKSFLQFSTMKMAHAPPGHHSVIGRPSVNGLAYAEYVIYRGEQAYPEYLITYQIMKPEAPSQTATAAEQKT
Description: Inhibition of recombinant human N-terminal TEV cleavage site-fused/FLAG-poly his-tagged TNKS SAM-PARP domain (1024 to 1327 residues) expressed in Escherichia coli assessed as reduction in auto-PARylation preincubated for 10 mins followed by biotinylated-NAD+ addition and measured after 45 mins by ELISA

COLO 320DM [6] = assay: Antiproliferative activity against human COLO320DM cells assessed inhibition of cell growth measured after 5 days by MTT assay; type: functional; settings: 120 h
[7] = Half life in ICR mouse at 50 mg/kg, ip; type: ADME, organism-based; settings: in vivo
[8] = target: Poly [ADP-ribose] polymerase 1 (Homo sapiens, UniProt P09874)
Chain of Poly [ADP-ribose] polymerase 1 (P09874 whole entry): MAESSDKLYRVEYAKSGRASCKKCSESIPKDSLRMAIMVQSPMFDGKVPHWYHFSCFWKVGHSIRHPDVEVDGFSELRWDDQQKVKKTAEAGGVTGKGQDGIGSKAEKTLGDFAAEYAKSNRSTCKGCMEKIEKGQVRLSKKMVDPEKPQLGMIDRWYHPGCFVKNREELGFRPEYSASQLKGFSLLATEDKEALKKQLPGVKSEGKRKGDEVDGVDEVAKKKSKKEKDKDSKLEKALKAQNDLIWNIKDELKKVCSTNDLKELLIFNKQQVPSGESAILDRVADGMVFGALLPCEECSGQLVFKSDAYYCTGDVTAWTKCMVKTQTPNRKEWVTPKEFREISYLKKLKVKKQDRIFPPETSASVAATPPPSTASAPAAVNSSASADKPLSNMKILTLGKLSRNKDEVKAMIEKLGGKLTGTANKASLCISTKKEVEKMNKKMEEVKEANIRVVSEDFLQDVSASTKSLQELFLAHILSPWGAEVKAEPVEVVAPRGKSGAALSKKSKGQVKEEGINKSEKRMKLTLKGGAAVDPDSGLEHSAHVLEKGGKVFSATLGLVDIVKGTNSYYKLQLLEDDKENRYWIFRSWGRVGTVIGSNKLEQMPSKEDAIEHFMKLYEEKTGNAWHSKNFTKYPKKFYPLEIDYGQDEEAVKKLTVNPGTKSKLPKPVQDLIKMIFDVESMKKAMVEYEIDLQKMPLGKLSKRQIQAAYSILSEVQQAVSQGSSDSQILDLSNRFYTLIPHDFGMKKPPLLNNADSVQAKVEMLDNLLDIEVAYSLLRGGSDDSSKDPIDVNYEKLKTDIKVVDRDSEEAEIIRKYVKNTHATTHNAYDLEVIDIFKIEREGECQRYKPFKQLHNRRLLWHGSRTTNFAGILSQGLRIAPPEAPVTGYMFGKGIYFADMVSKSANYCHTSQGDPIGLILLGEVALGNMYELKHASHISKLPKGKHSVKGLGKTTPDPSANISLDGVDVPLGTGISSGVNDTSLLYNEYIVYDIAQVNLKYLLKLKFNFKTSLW
Description: Inhibition of recombinant human PARP1 expressed in Escherichia coli assessed as reduction in auto-PARylation using histone as substrate measured after 45 mins in presence of biotinylated-NAD+ by ELISA

COLO 320DM [9] = assay: cells; settings: Homo sapiens, 96 h
Description: Antiproliferative activity against human COLO320DM cells assessed as inhibition of cell growth measured after 4 days by CellTiter-Glo assay

[10] = Cmax in ICR mouse at 50 mg/kg, ip; type: ADME, organism-based; set-up: dose 50 mg/kg, route intraperitoneal; settings: in vivo
[11] = Protein binding in mouse serum assessed as unbound fraction at 1 uM measured after 24 hrs by LC-MS/MS analysis; type: ADME, cell-free
Tankyrase 1/2 = target: T2, Tankyrase 1/2 (Homo sapiens, UniProt Q9H2K2+O95271)
T2 sequence (Q9H2K2 whole entry): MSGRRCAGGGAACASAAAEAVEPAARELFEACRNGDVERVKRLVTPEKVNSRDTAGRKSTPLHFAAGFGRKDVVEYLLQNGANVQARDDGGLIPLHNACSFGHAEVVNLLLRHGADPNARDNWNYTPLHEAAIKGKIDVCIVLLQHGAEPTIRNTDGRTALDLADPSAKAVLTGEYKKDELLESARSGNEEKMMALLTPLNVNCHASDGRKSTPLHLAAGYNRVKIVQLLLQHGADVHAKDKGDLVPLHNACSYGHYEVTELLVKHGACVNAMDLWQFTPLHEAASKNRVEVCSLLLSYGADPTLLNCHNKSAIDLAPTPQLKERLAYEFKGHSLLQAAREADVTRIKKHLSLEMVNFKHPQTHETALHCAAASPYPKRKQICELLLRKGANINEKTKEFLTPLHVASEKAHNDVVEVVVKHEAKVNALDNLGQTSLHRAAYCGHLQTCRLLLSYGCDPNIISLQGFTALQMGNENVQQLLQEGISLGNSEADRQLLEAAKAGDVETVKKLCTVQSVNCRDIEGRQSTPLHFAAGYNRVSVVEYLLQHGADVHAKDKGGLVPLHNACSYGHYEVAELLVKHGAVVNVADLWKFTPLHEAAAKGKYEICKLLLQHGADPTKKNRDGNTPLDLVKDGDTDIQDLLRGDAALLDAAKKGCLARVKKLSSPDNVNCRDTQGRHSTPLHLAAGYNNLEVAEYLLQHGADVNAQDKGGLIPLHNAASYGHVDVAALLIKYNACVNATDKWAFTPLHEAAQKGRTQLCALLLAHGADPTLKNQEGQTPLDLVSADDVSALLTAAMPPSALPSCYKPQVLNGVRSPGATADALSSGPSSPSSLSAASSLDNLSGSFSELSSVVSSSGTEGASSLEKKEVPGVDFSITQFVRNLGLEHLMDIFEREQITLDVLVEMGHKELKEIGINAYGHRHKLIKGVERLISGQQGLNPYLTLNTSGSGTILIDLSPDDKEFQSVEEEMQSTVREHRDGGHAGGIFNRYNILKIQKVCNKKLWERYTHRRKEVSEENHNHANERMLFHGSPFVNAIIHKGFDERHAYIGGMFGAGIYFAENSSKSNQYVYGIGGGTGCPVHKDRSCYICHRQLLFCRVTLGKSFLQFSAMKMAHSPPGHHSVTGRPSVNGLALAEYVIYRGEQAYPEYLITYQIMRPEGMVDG
T2 sequence (O95271 whole entry): T1 sequence (O95271 whole entry)
Description: Inhibition of TNKS/TNKS2 (unknown origin) expressed in human DLD1 cells assessed as reduction in Wnt-signaling measured after 24 hrs by TCF-luciferase reporter gene assay

RKO [12] = assay: Antiproliferative activity against human RKO cells assessed reduction in cell viability at 0.3 uM measured after 5 days by MTT assay; type: functional, cell-based
in vitro [13] = settings: mouse, liver microsomes
Description: Stability in mouse liver microsomes assessed as parent compound remaining at 1 uM measured after 30 mins in presence of NADPH by LC-MS/MS analysis

physchem = settings: phosphate buffer, pH 7.4
[14] = target: T3, Poly [ADP-ribose] polymerase tankyrase-2 (Homo sapiens, UniProt Q9H2K2)
T3 sequence (Q9H2K2 whole entry): T2 sequence (Q9H2K2 whole entry)
Description: Inhibition of recombinant human N-terminal TEV cleavage site-fused/FLAG-poly his-tagged TNKS2 SAM-PARP domain (613 to 1166 residues) expressed in Escherichia coli assessed as reduction in auto-PARylation preincubated for 10 mins followed by biotinylated-NAD+ addition and measured after 45 mins by ELISA

RKO [15] = assay: Antiproliferative activity against human RKO cells assessed inhibition of cell growth measured after 5 days by MTT assay; type: functional; settings: 120 h
[16] = Permeability of the compound by PAMPA; type: ADME; settings: read-out: permeability

fold change (FC) [1]	fraction unbound at 24 h, 1 µM [2]	AUC(0-inf) [3] [µM·h]	remaining at 0.5 h, 1 µM (in vitro [4]) [%]	IC50 [5] [nM]	GI50 (COLO 320DM [6]) [nM]	half-life [7] [h]	IC50 [8] [nM]	GI50 (COLO 320DM [9]) [nM]	Cmax [10] [µM]	fraction unbound at 24 h, 1 µM [11]	IC50 (Tankyrase 1/2) [nM]	remaining at 0.5 h, 1 µM (in vitro [13]) [%]	solubility at 1 h, 200 µM (physchem) [µg/mL]	IC50 [14] [nM]	Papp [16] [×10⁻⁶ cm/s]	Fu ([2]; 24 h, 1 µM) [%]	Compound	Activity (RKO [12])	GI50 (RKO [15]) [nM]
4.86	0.009	667	6.1	16.6	300	4.8	> 20000	1500	75.6	0.01	52.9	1.1	2.5 (≈ 6.03 µM)	17			O=c1[nH]c(N2CCC3(CC2)CN(CCO)c2cccc(Cl)c23)nc2c1CCCC2	Active	> 10000
5.75	0.018	157	28.9	4.4	250	4.1	> 20000	1000	5.35	0.042	13.9	19.1	84.5 (≈ 197 µM)	6.8	1.1		O=C1N(CCO)c2cccc(Cl)c2C12CCN(c1nc3c(c(=O)[nH]1)CCCC3)CC2	Active	> 10000
3.93	0.017	106	39.5	10	470	3.6	> 20000	2400	48.1	0.077	79.4	39.1	76.9 (≈ 179 µM)	15.1	7.9		O=C1N(CCO)c2cc(F)cc(F)c2C12CCN(c1nc3c(c(=O)[nH]1)CCCC3)CC2	Active	> 10000
			78.4					17000		0.086		0	0.4 (≈ 1.28 µM)		3.24	0.6	Oc1nc(-c2ccc(C(F)(F)F)cc2)nc2c1CSCC2		
